Assay results from patent US7345073B2, “Method for treating cryptorchidism” (Hormos Medical Ltd., priority 2003, dated 2008).

What was measured:
[1] = tested on: Aromatase over expressing mice AROM+ (line 021); experiment: Relative testes weights (testes weight/animal weight), AROM+ mice; type: in vivo, mouse; conditions: AROM+ (021) mice, n = 10; finrozole 10 mg/kg p.o. daily for six weeks; SD 0.0003
Method: (§1) The aromatase inhibitor finrozole {MPV-2213ad (10695U, without purification, Hormos Medical Ltd.} was the test compound. Vehicle (CMC-solution) was used as control substance. CMC-solution was prepared as follows: 0.25 g carboxylmethylcellulosa (CMC) (lot. 939512, Tamro OYJ) was weighed and solubilized in 50 ml of deionized (Milli-Q) water. The solution was prepared once a week and stored at +4° C. The dose level of finrozole 10 mg/kg dose level was used. The vehicle-test/control-solution, which was given to the test animals, was prepared daily as follows: the appropriate amount of finrozole was weighed in a transparent glass mortar. A few drops of vehicle were added and the mixture was thoroughly mixed. After this ⅓ of the final volume of vehicle was added to the mortar and placed into an ultrasonic incubator for five minutes. This procedure was done total of three times to reach the final volume.
(§2) Aromatase over expressing mice AROM^+ were used in this study. The mice were maintained under standard laboratory conditions at 12:12 light/dark cycle, and received free access to soyfree pelleted food (SDS, Witham, Essex, UK), and tap water.
We have generated a transgenic mouse model bearing the human ubiquitin C promoter/human P450 aromatase fusion gene (AROM^+). […]

wild type FVB/N mice [2] = experiment: Relative testes weights (testes weight/animal weight), wild type mice; type: in vivo, mouse; conditions: n = 7, finrozole 10 mg/kg p.o. daily for six weeks, SD 0.0003
Method: as §1
(§3) In the experiment there was […] different kind of groups of male mice, ten animals in each group. One control group (wild type FVB/N) received vehicle, as well as the other control (021 line) group. The last groups were treated with finrozole (10 mg/kg).
(§4) The dosing (4 ml solution/kg) of the animals took place p.o. daily for six weeks. On Saturdays, however, double dose of the test compounds was given to animals. On sundays there was no treatment.
(§5) The trial was conducted in total of 39 mice. […]

[3] = tested on: Aromatase over expressing mice AROM+ (line 021); experiment: Testes descent (palpation and opening the animal) after six weeks of p.o. treatment, AROM+ mice; type: in vivo, mouse; conditions: AROM+ (021) male mice, ten mice; finrozole 10 mg/kg p.o. daily for six weeks
Method: as §1, §2
We have generated a transgenic mouse model bearing the human ubiquitin C promoter/human P450 aromatase fusion gene (AROM^+). […] The AROM^+ males present with a multitude of severe structural and functional abnormalities of the reproductive system, such as cryptochidism, dysmorphic semiferous tubules and disrupted spermatogenesis. The males also have small or rudimentary accessory sex glands with abnormal morphology, a prominent prostatic utricle with squamous epithelial metaplasia, and abnormal morphology of ejaculatory duct and vas deferens. In addition, the abdominal wall muscle layer is thin, and the adrenals are enlarged with cortical hyperplasia. […] Some of the disorders in reproductive system, furthenmore, can be explained by the fact that the AROM^+ males are hypo-androgenic. […]

wild type FVB/N mice [4] = experiment: Testes descent (palpation and opening the animal) after six weeks of p.o. treatment, wild type mice; type: in vivo, mouse; conditions: wild type FVB/N male mice, nine mice; finrozole 10 mg/kg p.o. daily for six weeks
Method: as §1, §3, §4, §5

[5] = tested on: cryptorchidism (non-descended testes); conditions: according to one study; cited from earlier work

Row | Compound | Relative testes weights (testes weight/animal weight) [1] | Relative testes weights (testes weight/animal weight) (wild type FVB/N mice [2]) | Number of descended testes [3] | Number of partly descended testes [3] | Number of undescended testes [3] | Number of descended testes (wild type FVB/N mice [4]) | efficacy in cases of true non-descended testes [5]
1 | N#Cc1ccc(C(C(O)Cc2ccc(F)cc2)n2cncn2)cc1 (single isomer, unassigned) [finrozole, 1-[1-(4-cyanophenyl)-3-(4-fluorophenyl)-2-hydroxypropyl]-1,2,4-triazole, diasteroisomer a+d] | 0.0033 | 0.0027 | 17 | 2 | 1 | 18 | –
2 | LHRH: lutenizing-hormone releasing hormone, hormonal treatment of cryptorchidism (QHWSYGLRPG; Gonadoliberin-1; UniProt P01148 24-33, looked up) | – | – | – | – | – | – | ineffective
